From patent publication US11420922B2, “Hydroxylated tropolone inhibitors of nucleotidyl transferases in herpesvirus and Hepatitis B and uses therefor” (Saint Louis University, priority 2015, dated 2022)
pEC50: −log10 of the molar value. “Also recorded” adds a separate entry of the source. Like-named read-outs stand apart in the source and are kept apart here.

Tests used:
HSV-1 [1] = conditions: 5 μM or less; cited from earlier work
[2] = Quantitative Vero cell toxicity (MTT); type: cell-based; conditions: African green monkey, Vero cells
Method: (§1) Qualitative assessments of cytotoxicity were done visually by inspecting the cells in the primary screening assays. For the quantitative assays, cells were plated in 96-well plates at 1.0×10^4 per well. The next day the compounds were added at 0.78 to 100 μM in a final concentration of 1% (v/v) DMSO, and the cells were incubated for 24 hours under conditions identical to those employed for the viral replication inhibition assays. Mitochondrial toxicity was measured by incubating the cells with 0.25 mg/mL thiazolyl blue tetrazolium bromide (MTT, Sigma Aldrich Chemical Co.), the cultures were incubated for 60 min, metabolites were solubilized in acidic isopropanol, and absorbance was read at 570 nm. CC50 values were calculated by non-linear curve fitting using GraphPad Prism.
Quantitative toxicity measurements were conducted for all compounds that suppressed HSV replication by >2 log10 at 5 μM plus a number of compounds with lesser inhibitory activity for comparison. Toxicity was assessed by […]. Cells were plated in 96-well plates at 1.0×10^4 per well. The next day compound was added in concentrations ranging from 0.78 to 100 μM in a final concentration of 1% (v/v) DMSO. The cells were incubated for 24 h under conditions identical to those employed for the viral replication inhibition assays, and then mitochondrial activity was measured with the MTT assay (Sigma Aldrich) according to the manufacturer's instructions. Percent viability was determined for each compound concentration from the […], and then 50% cytotoxic concentrations (CC50) values were calculated by non-linear curve fitting using GraphPad Prism. Consistent with the subjective assessments of toxicity, all compounds selected for quantitative toxicity assessment had CC50 values≥50 μM under these conditions (Table 1).

HSV-1 [3] = experiment: Anti-HSV-1 replication assay in Vero cells, titers by plaque assay; type: cell-based, herpes simplex virus 1; conditions: for log reduction at 5 µM: read-out: HSV-1 Log suppression 5 μM; for log reduction at 50 µM: read-out: HSV-1 Log suppression 50 μM
Method: Vero cells were maintained in Dulbecco's modified Eagle's medium (DMEM) containing 3% newborn calf serum, 3% bovine growth serum, 2 mM L-glutamine and 100 IU/mL penicillin and 0.1 mg/mL streptomycin (P/S). HSV-1 #6 and HSV-2 #1 are de-identified clinical isolates from the Saint Louis University Hospital. Stocks were prepared after a single passage in cell culture and were titered by standard plaque assay (Knipe and Spang, 1982). Wild-type HSV-2 used in FIG. 3 was laboratory strain 333. […] Virus stocks were grown and titered on Vero cells (Morrison and Knipe, 1996).
(§2) Compounds to be screened were diluted in PBS supplemented to contain 2% newborn calf serum and 1% glutamine, and added in 100 μL volume to confluent cell monolayers in 24-well cluster plates. Immediately thereafter HSV-1 and HSV-2, diluted in the supplemented PBS medium, were added to the wells in 50 μl volume such that the final concentration of compound was 50 μM and 5 μM and the multiplicity of infection was 0.1. The plates were incubated at 37° C. for 1 hour and then virus-containing inoculum was removed and the wells were washed once in PBS. Compounds, diluted to 50 μM and 5 μM in DMEM supplemented to contain 2% newborn calf serum and 1% each penicillin/streptomycin, were added at 0.5 mL/well. Plates were incubated at 37° C. an additional 23 hr, and then the plates were visually inspected through a phase contrast microscope for cytopathic effect, and for toxic effect. […] The entire contents of each well were collected by scraping. Samples were frozen at −80° C., and then subsequently thawed, sonicated, and infectious virus titer was determined by standard plaque assay on Vero cell monolayers. Because the compounds were dissolved at 10 mM in 100% DMSO, equivalent dilutions of DMSO were added to additional wells as a control for effects of the diluent. Each experiment was repeated once. EC50 values were determined as above except that serial dilutions of the compound to be tested were prepared starting at 50 μM. The inhibitory values were calculated by non-linear curve-fitting in GraphPad Prism.

HSV-2 [4] = conditions: 5 μM or less; cited from earlier work
HSV = experiment: Anti-HSV SAR summary, HSV type not separated; type: cell-based, herpes simplex virus; conditions: grouped by activity at 50, 5 and 0.5 μM
Method: as §2
A series of over 20 synthetic αHTs were synthesized and tested to both confirm the initial SAR, and to provide leads for further optimization pursuits (FIG. 5). […] Specifically, biphenyl-containing molecules #118 and 115 inhibit HSV replication by up to 4 log10 at 200 nM. The increased potency over close analogs #111 and 113 confirmed the importance of added lipophilicity.

HSV-2 [5] = experiment: Anti-HSV-2 replication assay in Vero cells, titers by plaque assay; type: cell-based, herpes simplex virus 2; conditions: for log reduction at 5 µM / log reduction at 50 µM: Human alphaherpesvirus 2, Vero, 24 h; for log reduction at 5 µM: read-out: HSV-2 Log suppression 5 μM; for log reduction at 50 µM: read-out: HSV-2 Log suppression 50 μM
[6] = Cytotoxicity reported with the HBV assay (Table 4); type: cell-based; conditions: human, hepatoma cells; read-out: CC50 (HBV assay table)
Method: as §1

HBV = HBV replication assay in HepDES19 cells; type: cell-based; conditions: Hepatitis B virus
Method: HBV replication assay. Inhibition of HBV replication was measured in HepDES19 cells as previously described (Cai, et al., 2014). Cells were seeded into 6-well plates and incubated in DMEM/F12, 10% fetal bovine serum (FBS), 1% penicillin/streptomycin (P/S) with 1 μg/ml tetracycline. Tetracycline was withdrawn after 24 hours. The test compound was applied to duplicate wells 48 hours later in medium containing a final DMSO concentration of 1%, and medium containing the compound was refreshed daily for the following two days. Cells were harvested and non-encapsidated nucleic acids were digested with micrococcal nuclease (New England Biolabs). HBV DNA was purified from capsids using QIAamp Cador Pathogen Mini Kit (Qiagen) with proteinase K incubation overnight at 37° C. TaqMan PCR was performed for 40 cycles at an annealing temperature of 60° C. Primers and probe (IDT Inc.) for the plus-polarity strand were: 5′[…]3′ (SEQ ID NO: 1); 5′[…]3′ (SEQ ID NO: 2); 5′/56-FAM/[…]/ZEN/[…]/3IABkFQ (SEQ ID NO: 3). Primers and probe for the minus-polarity strand were: 5′[…]3′ (SEQ ID NO: 4); 5′[…]3′ (SEQ ID NO: 5); 5′/56-FAM/[…]/ZEN/[…]/3IABkFQ (SEQ ID NO: 6).

[7] = Mouse liver microsome assay; type: in vitro ADME; conditions: 1 μM in mouse liver microsomes; for half-life at 1 μM: read-out: t ½; for ER: extraction ratio
Method: Microsomal incubations are run at a final P450 concentration of 0.25 μM. The microsomal mixture is composed of 0.1M potassium phosphate containing 3.3 mM MgCl and 1 μM compound (final concentration). The mixture is prewarmed for 5 min at 37° C. To initiate the reaction a 12 mM stock of NAPDH (1.2 mM, final concentration) is added to the warmed microsomal mixture and aliquots are removed at 0, 5, 10, 20 and 30 min. Samples are quenched with ice cold acetonitrile containing internal standard and either 1.8 mM EDTA or EGTA (final concentration). Samples are vortexed and spun down at 3200 rpm for 5 min. The supernant is transferred to 96-deep well plates and run on LC/MS/MS.

[8] = Human alphaherpesvirus 1, Vero, 24 h
[9] = HepDES19 cells, read-out: EC50 (HBV assay)

| SMILES | suppression of HSV-1 replication in cell culture, in words (HSV-1 [1]) | CC50 at 24 h [2] | log reduction at 5 µM (HSV-1 [3]; [8]) | suppression of HSV-2 replication in cell culture, in words (HSV-2 [4]) | anti-HSV SAR group, in words (HSV) | log reduction at 5 µM (HSV-2 [5]) | CC50 at 24 h [6] | pEC50 (HBV; [9]) | log reduction at 50 µM (HSV-1 [3]; [8]) | log reduction at 50 µM (HSV-2 [5]) | HSV-1 inhibition, fold (HSV-1 [3]; 5 μM) | pEC50 (HSV-1 [3]; Human alphaherpesvirus 1, Vero, 24 h, read-out: HSV-1 EC50) | HSV-2 inhibition, fold (HSV-2 [5]; 5 μM) | Non-P450 turn-over [7] | half-life at 1 μM [7] | ER [7] | pEC50 (HBV; HepDES19, read-out: EC50 (HBV assay)) |
| --- | --- | --- | --- | --- | --- | --- | --- | --- | --- | --- | --- | --- | --- | --- | --- | --- | --- |
| Cc1cc(O)c(=O)c(O)cc1C(=O)c1ccccc1 [Compound 111] | strongly suppress | > 50 µM | 4.28 | strongly suppress | fully inhibitory at 5 μM | 3.21 | 31 µM |  |  |  |  |  |  |  |  |  |  |
| Cc1cc(O)c(=O)c(O)cc1-c1ccccc1 [Compound 113] |  | > 100 µM | 2.27 |  |  | 2.07 |  | 5.38 | 5.38 | 5.61 |  |  |  |  |  |  |  |
| Cc1cc(O)c(=O)c(O)cc1-c1ccc(Br)cc1 [Compound 114] |  | > 100 µM | 4.8 |  |  | 3.92 |  |  | 4.75 | 5.26 |  |  |  |  |  |  |  |
| Cc1cc(O)c(=O)c(O)cc1-c1cccc(Br)c1 [Compound 119] |  | 72.4 µM | 5.19 |  |  | 5.02 | 81 µM | 5.19 | 5.28 | 4.88 |  |  |  |  |  |  |  |
| Cc1cc(O)c(=O)c(O)cc1C(=O)C1CCCCC1 [Compound 120] | strongly suppress | ~50 µM | 4.84 | strongly suppress | fully inhibitory at 5 μM | 5.41 | 24 µM |  | 5.53 | 5.07 |  |  |  |  |  |  |  |
| Cc1cc(O)c(=O)c(O)cc1C(=O)C(C)C [Compound 143] | strongly suppress |  | 0.25 | strongly suppress | weakest inhibitors | 0 | > 100 µM | 5.22 | 5.93 | 4.78 |  |  |  |  |  |  |  |
| Cc1cc(O)c(=O)c(O)cc1-c1ccc(C(F)(F)F)cc1 [Compound 145] |  | > 100 µM | 3.96 |  |  | 4.05 |  |  | 3.97 | 4.33 |  |  |  |  |  |  |  |
| Cc1cc(O)c(=O)c(O)cc1-c1cccc2ccccc12 [Compound 146] |  | > 100 µM | 5.68 |  | highly inhibitory at much lower concentrations; also recorded: fully inhibitory at 0.5 μM | 5.66 | 12 µM | 5.64 | 6.2 | 5.29 | 478,600 fold | 6.35 | 457,100 fold | No | > 2 h | <0.1 |  |
| Cc1cc(O)c(=O)c(O)cc1-c1ccc2ccccc2c1 [Compound 147] |  | 74.8 µM | 5.92 |  |  | 4.33 |  |  | 5.81 | 4.12 |  |  |  | No | > 2 h | <0.1 |  |
| O=c1c(O)ccccc1O [Compound 172] |  | > 100 µM | 3.31 |  | moderate inhibitors | 1.8 | > 100 µM |  | 4.11 | 4.64 |  |  |  |  |  |  | 5.68 |
| Cc1cc(O)c(=O)c(O)cc1C(=O)CC1CCCCC1 [Compound 173] |  | > 100 µM | 5.91 |  | fully inhibitory at 5 μM | 5.32 | 22 µM | 5.17 | 5.8 | 5.94 |  |  |  |  |  |  |  |
